{"source": "paper PMC4467461", "about": "“Small-molecule activation of SERCA2a SUMOylation for the treatment of heart failure” (Nature Communications, 2015)", "tested_on": "sham-operated mice", "experiment": "Haemodynamic measurements in sham-operated mice", "type": "in vivo", "conditions": "sham mice, 0.1, 1, 10 mg kg^−1", "experimental": "One day after echocardiography, we performed in-vivo haemodynamics. The mice were anaesthetized with an intraperitoneal injection mixture of urethane (1 mg g^−1), etomidate (10 μg g^−1) and morphine (1 μg g^−1), and were then intubated via a tracheotomy and mechanically ventilated at 7 μl g^−1 tidal volume and 120 respirations per minute. A small incision was made in the apex and a French Millar cathether connected a high-fidelity pressure transducer (Scisense, London, ON, Canada) inserted into the LV. Haemodynamic recordings were performed after 5∼10 min of stable HR. The rate of pressure rise (+dP/dt) and maximal pressure, the time constant of isovolumic relaxation and HR were recorded and analysed. To determine the relative effects of the admittance and conductance techniques to contractility change induced by N106 compound infusion, whole haemodynamic function was recorded at both baseline and after administration of N106 compound through the external jugular vein. N106 compound was solubilized in 10% DMSO (Sigma-Aldrich), 10% Tween-80 (Sigma-Aldrich) and saline for in-vivo experiments. N106 or vehicle solutions were continuously infused through the external jugular vein at a rate of 50 μl min^−1 for 2 min in each dose. Whole haemodynamic functions of increasing dose of N106 of each mouse were recorded for ∼4 h. […]", "note": "“Also recorded” adds a separate entry of the source.", "data": [{"compound": "COc1ccc(-c2nnc(Nc3nc4c(OC)cccc4s3)o2)cc1", "note": "[Compound N106, N-(4-methoxybenzo[d]thiazol-2-yl)-5-(4-methoxyphenyl)-1,3,4-oxadiazol-2-amine]", "values": [{"measurement": "effect on ESPVR slope, dP/dt max, maximal pressure and heart rate", "result": "no significant effect; also recorded: not statistically significant"}]}]}
